Experimental data reported in patent US20260132115A1, “SUBSTITUTED 3-FLUOROBENZENEPROPANOATE COMPOUND AND PREPARATION METHOD THEREFOR, PHARMACEUTICAL COMPOSITION THEREOF, AND USE THEREOF” (TIANJIN GUDUI BIO-PHARM CO., LTD., priority 2022, published 2026).
Like-named read-outs stand apart in the source and are kept apart here.

Columns and labels:
[1] = test system: λ-Carrageenan-Induced Rat Toe Swelling; test: Anti-inflammatory effect on λ-carrageenan-induced rat toe swelling; assay type: in vivo, SD rats; settings: Rattus norvegicus, ip, 10 mg/kg intraperitoneal, 1 h before 1% λ-carrageenan
Procedure: Experimental method: Male SD rats weighing 150-160 g were randomly grouped, with 10 rats in each group. The rats were intraperitoneally injected with saline, the compounds of the present disclosure, and the control drug flurbiprofen or flurbiprofen axetil respectively, all of which were administered at a dose of 10 mg/kg and a dosing volume of 10 μL/g. At 1 h after administration, 100 μL of 1% λ-carrageenan was injected into the right hind toe of each rat to induce inflammation. Afterwards, the paw volume was measured every 1 h using a paw volume meter to calculate the swelling inhibition rate.

NUGC-4 = test: Antitumor potency, MTT method, NUGC-4; assay type: cell-based; settings: Homo sapiens, 72 h incubation
Procedure: (§1) Experimental method: The antitumor potency was tested by the MTT method. Tumor cells at the logarithmic phase were collected. The concentration of the cell suspension was adjusted. 100 μL of the cell suspension was added to each well. Cell plating was carried out and the cell density was adjusted to 1000 to 10000/well (the marginal wells were filled with sterile PBS). The cells were incubated at 5% CO2 and 37° C. until the cells adhered to the wall (96-well flat-bottomed plate). Drugs of different concentration gradients were added, 100 μL per well. Four replicates were set up. Under the conditions of 5% CO2 and 37° C., the cells were incubated for 72 h and observed under an inverted microscope. The prepared MTT solution (5 mg/mL) was added to the 96-well plate, 20 μL per well, mixed well, and incubated for 4 h under the conditions of 37° C. and 5% CO2. Afterwards, the liquid in the plate was discarded. 150 μL of DMSO was added to each well and oscillated for 3 min on a microplate reader. The OD value (optical density) was detected at 490 nm.
(§2) The inhibition rate of the drug against the tumor cell growth was calculated according to the following formula: […]

[2] = test system: Dry Yeast-Induced Rat Fever Models; test: Antipyretic effect on dry yeast-induced fever in rats; assay type: in vivo, SD rats; settings: rectal temperature, 10 mg/kg intraperitoneal, 20 min before 20% dry yeast s.c.
Procedure: Experimental method: Male SD rats, aged 4 weeks, were randomly grouped, with 10 rats in each group. […] The rats were intraperitoneally injected with saline, the compounds of the present disclosure or the control drug flurbiprofen respectively, all of which were administered at a dose of 10 mg/kg and a dosing volume of 10 μL/g. At 20 min after administration, 20% active dry yeast suspension was injected subcutaneously. After modeling, the rectal temperatures were measured at 4 h and 8 h.

MM.1S = test: Antitumor potency, MTT method, MM.1S; assay type: cell-based; settings: Homo sapiens, MM1.S, 72 h incubation
Procedure: as §1, §2

[3] = In vivo pharmacokinetic assay in rats (gavage, plasma); settings: female, Sprague Dawley, po, prototype drug in rat plasma, dose equimolar to 50 mg/kg flurbiprofen; for half-life: read-out: Prototype Drug t1/2 (converted)
Procedure: Experimental method: Adult female Sprague Dawley rats, aged 8-10 weeks and weighing 200±20 g, were randomly grouped, with 3 rats in each group. Rats in each of the groups were administered by gavage at a dose of 50 mg/kg of flurbiprofen and an equimolar dose of other example compounds to 50 mg/kg of flurbiprofen, respectively. After gavage administration, blood was collected at 0.0833 […], and 24 h into sodium heparin anticoagulant tubes, respectively. The blood was collected by the following method: 250 μL of blood were collected from the orbital venous plexuses of the rats. After blood collection, the blood samples were centrifuged at 12000 rpm in a centrifuge for 5 min. All plasma was aspirated into a 1.5-mL centrifuge tube, and the plasma was stored in a refrigerator at -80° C. The pharmacokinetic parameters were determined by the external standard curve method. Sample processing: after the cryopreserved samples were removed and restored to room temperature, the samples were vortexed evenly and then diluted two folds with methanol; the sample solution was diluted 5 folds by adding a mixed extractant of 0.5% formic acid-containing acetonitrile:methanol=7:3, and subjected to vortex oscillation for 1 min. Subsequently, the resultant was centrifuged at 4° C. and 12000 rpm for 10 min, and then 5 μL of the supernatant was measured for assay. The pharmacokinetic parameters in the Examples were calculated using the Winnonlin software.

U251 = test: Antitumor potency, MTT method, U251; assay type: cell-based; settings: Homo sapiens, U-251, 72 h incubation
Procedure: as §1, §2

Eca-109 = test: Antitumor potency, MTT method, Eca-109; assay type: cell-based; settings: Homo sapiens, 72 h incubation
Procedure: as §1, §2

rats with CIA = test: Analgesic and anti-inflammatory effects on collagen-induced rheumatoid arthritis (CIA) in rats; assay type: in vivo, Lewis rats; settings: for paw volume effect as compared to the flurbiprofen group: left hind limb, 14-day intervention, 10 mg/kg (FIG. 3); for MWT effect as compared to the flurbiprofen group: left lower limb, 13-day intervention, 10 mg/kg (FIG. 4)
Procedure: Experimental method: Female Lewis rats, aged 6-8 weeks, were randomly grouped, with 8 rats in each group. Under the ambient temperature of 20.5° C. to 24.5° C. and the humidity of 40% to 70%, the light period was 12-h bright and 12-h dark. Type II collagen was mixed with Freund's incomplete adjuvant (IFA) at a ratio of 1:1 and fully emulsified on ice before use. 100 μL of the mixed solution was injected intradermally at the part 2 to 3 cm from the base of the rat tail, and 50 μL of the mixed solution was injected into the bases of both hind limbs separately. The rats in the blank control group were injected with an equal volume of saline. IFA was used for re-immunization 7 days later. […] Rats with a total score of more than 2 on both hind limbs were selected and randomly divided into a model group, a flurbiprofen group, a compound 33 group, a compound 2 group, a compound 13 group, a compound 20 group, and a compound 35 group according to the body weight, score and paw volume, and furthermore a blank control group was set up, with 8 rats in each group. The dosing […] was […], and the dosing time was 14 days. A corresponding volume of solvent was administered in the model group and the blank control group.
Test indicators: body weight, arthritis score, hind limb paw volume, and mechanical foot threshold (MWT).
Standard for arthritis score: 0=normal; 1=erythema and slight swelling observed at the ankle joint; 2=erythema and slight swelling observed from the ankle joint to the metatarsal joint or the metacarpal joint; 3=erythema and moderate swelling observed from the ankle joint to the metatarsophalangeal joint or the metacarpal joint; 4=erythema and severe swelling observed from the ankle joint to the metatarsal joint; the total score of all (four) paws was calculated, and the sum of the arthritis indices was up to 16 per rat.

U87 = test: Antitumor potency, MTT method, U87; assay type: cell-based; settings: Homo sapiens, U-87 MG, 72 h incubation
Procedure: as §1, §2

H460 = test: Antitumor potency, MTT method, H460; assay type: cell-based; settings: Homo sapiens, NCI-H460, 72 h incubation
Procedure: as §1, §2

[4] = 6 h, read-out: Toe Swelling Inhibition Rate at 6 h
[5] = 24 h, read-out: Toe Swelling Inhibition Rate at 24 h

Row | Compound | inhibition in vivo at 10 mg/kg [1, 4] | inhibition in vivo at 10 mg/kg [1, 5] | IC50 (NUGC-4) | Temp. at 4 h After Dosing [2] | Temp. at 8 h After Dosing [2] | IC50 (MM.1S) | AUC [3] | Cmax [3] | half-life [3] | IC50 (U251) | IC50 (Eca-109) | paw volume effect as compared to the flurbiprofen group (rats with CIA) | MWT effect as compared to the flurbiprofen group (rats with CIA) | IC50 (U87) | IC50 (H460)
1 | CC(C(=O)OCOC(=O)N1CCOCC1)c1ccc(-c2ccccc2)c(F)c1 (stereo not drawn) [Compound 2] | 42.9% | 34.1% | 60 µM | 37.10 ± 0.17 °C | 37.32 ± 0.27 °C | 41.7 µM | 183 ± 85.9 ng·h/mL | 27.1 ± 7.2 ng/mL | 14 ± 9.88 h | > 100 µM | 55.7 µM | better effects | slightly better or better effects | > 100 µM | 90 µM
2 | Cc1cc(CO)c(O)c(COC(=O)C(C)c2ccc(-c3ccccc3)c(F)c2)c1 (stereo not drawn) [Compound 33] | 55.5% | 35.8% | > 100 µM | 37.18 ± 0.18 °C | 37.27 ± 0.28 °C | > 100 µM | 8.75 ± 1.53 ng·h/mL | 1.56 ± 0.509 ng/mL | 9.08 ± 1.44 h | > 100 µM | > 100 µM | better effects | slightly better or better effects | > 100 µM | > 100 µM
3 | CC(C(=O)OCOC(=O)c1ccc(O)cc1)c1ccc(-c2ccccc2)c(F)c1 (stereo not drawn) [Compound 35] | 54.6% | 49.8% | 41.8 µM | 37.15 ± 0.21 °C | 37.29 ± 0.30 °C | 45.7 µM | – | – | – | 7.33 µM | 29.6 µM | better effects | slightly better or better effects | 60.3 µM | 32.6 µM
